Measurements as given in patent publication US11813277B2, “Methods and agents for modulating inflammation” (The Regents of the University of California, priority 2018, dated 2023).

Key:
[1] = system: adenine nucleotide translocase (ANT); assay: ATP hydrolysis in isolated mitochondria, intact or alamethicin-permeabilized; type: biochemical, rat
Text: ATP hydrolysis in isolated mitochondria (McQuaker, S. J., Quinlan, C. L., Caldwell, S. T., Brand, M. D., and Hartley, R. C. (2013). A prototypical small molecule modulator uncouples mitochondria in response to endogenous hydrogen peroxide production. Chembiochem. 14, 993-1000; Divakaruni, A. S., Andreyev, A. Y., Rogers, G. W., and Murphy, A. N. (2017a) In situ measurements of mitochondrial matrix enzyme activities using plasma and mitochondrial membrane permeabilization agents. Anal. Biochem. 17, 30385-8) was performed in MAS buffer, and stimulated by respiratory chain inhibition (1 μM rotenone and 2 μM antimycin A) followed by addition of excess ATP (25 mM) and uncoupler (1 μM FCCP). Hydrolysis was inhibited by injection of either oligomycin (3 ng/mg mitochondrial protein) or carboxyatractylo side (7.5 ng/mg mitochondrial protein). Rates of extracellular acidification (ECAR, in mpH/min) were converted to proton production rates (PPR, in pmol H+/min) by determining the buffer capacity with sequential injections of HCl and H2SO4 (Mookerjee, S. A., Goncalves, R. L., Gerencser, A. A., Nicholls, D. G., and Brand, M. D. (2015). The contributions of respiration and glycolysis to extracellular acid production. Biochim et Biophys Acta. 1847, 171-81). 10 μg/mL alamethicin was used to permeabilize the mitochondrial inner membrane (1 μg/mg mitochondrial protein).

[2] = system: M(IL-4) polarization of BMDMs; assay: Flow cytometry of IL-4-associated cell surface markers in BMDMs; type: cell-based, mouse; details: for population of CD206+/CD71+ cells: oxidative phosphorylation inhibitors co-treated with IL-4; for number of cells positive for both CD206 and CD71: IL-4
Procedure: (§1) For all gene expression and flow cytometry experiments described below, day 6 BMDM were plated at 3×10^5 cell/well in 12-well plates. The next day, cells were treated with appropriate compounds (and duration as indicated in figures and below) in DMEM supplemented with 5% FBS, 2 mM L-glutamine, 100 units/mL, 100 μg/mL penicillin/streptomycin, 500 μM of sodium pyruvate and 5% v/v conditioned media containing macrophage colony stimulating factor (M-CSF).
(§2) For flow cytometry experiments involving etomoxir (FIG. 1G, FIG. 2A, FIG. 2D, FIG. 3A, FIG. 3B, FIG. 3G, FIG. 3H): BMDMs were mock-treated (media replacement only) or treated with 20 ng/mL of IL-4±3 μM or 200 μM of etomoxir for 48 hr. When measuring expression of M(IL-4)-associated genes in response to etomoxir (FIG. 1H, FIG. 2B), BMDMs were mock-treated or treated with 20 ng/mL of IL4±etomoxir as indicated for 24 hr.
(§3) For experiments involving respiratory chain inhibitors: BMDMs were mock-treated (media replacement only) or treated with 20 ng/mL of IL4±1.2 μM oligomycin (Oligo), 200 nM rotenone (Rot), 200 nM antimycin A (AntiA), 100 nM piericidin A (PierA), or 5 μM carboxyatractylate (CAT) for either 24 (FIG. 4G, FIG. 4H, FIG. 6G) or 48 hr (FIG. 4F, FIG. 7D). All inhibitors were given as co-treatments simultaneously with IL-4.
For experiments involving CoA supplementation (FIG. 10A, FIG. 10B, FIG. 10C, FIG. 10D, FIG. 10E, FIG. 9C, FIG. 9D): BMDMs were mock-treated (media replacement only) or treated with 20 ng/mL of IL4±etomoxir (concentration indicated in figures)±CoA (concentration indicated in figures) for 48 hr. Etomoxir and CoA were given as co-treatments simultaneously with IL-4.
Prior to FACS analysis, BMDMs were detached using 350 μL of Accutase, followed by two washes with FACS buffer (PBS+1% (v/v) BSA+0.05% (w/v) sodium azide). Anti-mouse CD16/32 antibody was used at a dilution of 1:500, while all other antibodies were used at a dilution of 1:250. All flow cytometry data were captured using BD FACSVerse flow cytometer and analyzed using the FlowJo X 10.0.7r2 software. In all, 2×104 live events were acquired for each sample (gated on DAPIneg). For analysis, CD206+/CD71+ and CD206+/CD301+ populations were gated based on Fluorescence Minus One (FMO) controls.

[3] = system: BMDMs; assay: Basal mitochondrial respiration in intact BMDMs; type: cell-based, mouse; details: 1.2 μM oligomycin, 200 nM rotenone, 200 nM antimycin A, 100 nM piericidin A, 5 μM CAT
Procedure: All respirometry studies were conducted in either a Seahorse XF96 or XFe96 Analyzer. All experiments were conducted at 37° C., and at pH 7.4 (intact cells) or 7.2 (permeabilized cells and isolated mitochondria). Calculation of respiratory parameters was made according to standard protocols (Divakaruni, A. S., Paradyse, A., Ferrick, D. A., Murphy, A. N., and Jastroch, M. (2014a) Analysis and interpretation of microplate-based oxygen consumption and pH data. Meth. Enzym 547, 509-54), and all rates were corrected for non-mitochondrial respiration/background signal by subtracting the oxygen consumption rate insensitive to rotenone plus antimycin A.
Respiration in intact BMDMs was measured in medium containing 8 mM glucose, 2 mM glutamine, 2 mM pyruvate, and 5 mM HEPES. Cells were plated at 5.0×10^4 cells/well and assayed after 48 hr. When measuring the response to IL-4, cells were treated with 20 ng/mL of IL-4 24 hr. after initial plating, and respiration was measured the following day (˜48 hr after initial seeding). […]

[4] = system: Relma, Mgl2, Ym1, Fabp4, Arg1 expression; assay: qPCR of IL-4-associated genes in BMDMs; type: cell-based, mouse; details: for IL-4-induced expression of Relma, Ym1, Mgl2: electron transport chain inhibitors
Procedure: as §1, §2, §3
RNA was isolated with TRIzol, then cDNA was synthesized with high-capacity cDNA reverse transcription kit. KAPA SYBR FAST qPCR Master Mix kit and a LightCycler 480 were used for quantitative RT-PCR. Fold change related to the control group was calculated using […] with 36b4 as the reference gene.

[5] = system: LCFA oxidation in BMDMs; assay: 9,10-3H-palmitate oxidation (3H2O release) in BMDMs; type: cell-based, mouse; details: 200 nM rotenone or 200 nM antimycin A, IL-4-stimulated
Procedure: BMDMs at day 6 of differentiation were seeded at 3×10^5 cells/well in 12 well plates in BMDM media. The next day, cells were treated in DMEM containing 25 mM glucose supplemented with 5% FBS, 2 mM L-Glutamax, 100 units/mL, 100 μg/mL penicillin/streptomycin, 1 mM of sodium pyruvate, 1 mM carnitine, and 5% v/v conditioned media containing macrophage colony stimulating factor (M-CSF) under one of 5 conditions: control, 20 ng/mL of IL-4±3 μM or 200 μM of etomoxir, or 200 nM rotenone, or 200 nM antimycin A for 24 hr. Fatty acid oxidation was measured 24 hours later as previously described (Rognstad, R. (1991) Estimation of peroxisomal and mitochondrial fatty acid oxidation in rat hepatocytes using tritiated substrates. Biochem J 279:147-150, 1991; Cha, B. S., Ciaraldi, T. P., Park, K. S., Carter, L., Mudaliar, S. R., and Henry R R. (2005) Impaired fatty acid metabolism in type 2 diabetic skeletal muscle cells is reversed by PPARgamma agonists. Am J Physiol Endocrinol Metab. 289, E151-9) following a fluid change to DMEM with components as described above except 10 mM glucose and 0.2 μCi (final concentration of 5 μM) BSA-conjugated [9,10-3H]palmitic acid. No additional IL-4 was added at the time of this fluid change, but etomoxir, rotenone and antimycin A were added, and the plates were placed in a […] incubator at 37° C. for 3 hr. After incubation, a 100 μL aliquot of the culture medium was passed over an ion-exchange resin, and the column was washed twice with 0.75 ml of water. Free fatty acids were retained by the resin, whereas the tritium hydrolyzed from radiolabeled palmitate catabolism was released as labeled water, which passes freely through the resin, and is subsequently counted for radioactivity. All data are corrected for protein content in each well. There were 3 technical replicates for each condition, and 4 biological replicates arising from 4 separate animals.

[6] = system: phosphate (Pi) transporter; assay: Phosphate transporter assay (mitochondrial swelling); type: biochemical, rat; details: 250 μM etomoxir, 100 μM NEM, 10 μM mersalyl
Procedure: Phosphate transport was measured by monitoring swelling of de-energized mitochondria in isotonic potassium phosphate medium based upon principles described by Coty, W. A. and Pedersen, P. L. (1975) Phosphate transport in rat liver mitochondria. Kinetics, inhibitor sensitivity, energy requirements, and labeled components. Mol Cell Biochem. 9, 109-24. As the phosphate carrier acts as electroneutral symporter with protons, the process is self-restricting due to generation of an opposing pH gradient. […] In the presence of nigericin, the proton fluxes cycle resulting in electro- and pH-neutral transport of potassium phosphate down its concentration gradient into the mitochondrial matrix, resulting in osmotic accumulation of water. Under these conditions, transport is limited by the activity of phosphate carrier, and can be recorded as mitochondrial swelling (a decrease in light scattering).
The measurements were performed in an LS-50B spectrofluorometer (Perkin-Elmer) at 540 nm. Assay medium contained 125 mM potassium phosphate, pH 7.2, 0.5 mM EGTA, and 2 μM rotenone. Mouse liver mitochondria (0.5 mg/ml) were treated with 250 μM etomoxir, 100 μM N-ethylmaleimide (NEM) (Klingenberg, M., Durand, R., and Guerin, B. (1974) Analysis of the reactivity of SH-reagents with the mitochondrial phosphate carrier. Eur J Biochem, 42, 135-150) or 10 μM mersalyl (Paradies, G. and Ruggiero, F. M. (1991) Effect of aging on the activity of the phosphate carrier and on the lipid composition in rat liver mitochondria. Arch Biochem Biophys. 284, 332-337) and the reaction was started with 5 μM nigericin. Typical traces from 3 experiments are shown. To establish the maximally swollen state of mitochondria, 80 μg/ml alamethicin was used.

[7] = alamethicin-permeabilized mitochondria
[8] = intact isolated mitochondria, etomoxir 100 μM, CAT 7.5 ng/mg, oligomycin 3 ng/mg

How did the ATP hydrolysis [1, 7] turn out when `C=C1[C@@H]2CC[C@H]3[C@]4(C)C[C@H](O[C@@H]5O[C@H](CO)[C@@H](OS(=O)(=O)O)[C@H](OS(=O)(=O)O)[C@H]5OC(=O)CC(C)C)CC(C(=O)O)(C(=O)O)[C@H]4CC[C@]3(C2)[C@H]1O` [carboxyatractyloside] was run?
The ATP hydrolysis was “no effect”.

What about the ATP hydrolysis [1, 8] of the same compound?
The ATP hydrolysis was “inhibited ATP hydrolysis”.

What about the “population of CD206+/CD71+ cells” value [2] of the same compound?
Its value is “none of the inhibitors of ATP synthesis or the electron transport chain significantly lowered”.

And the “respiration at 24 hr” value [3]?
Its value is “strongly reduced respiration”.

With antimycin A as the compound, how does the “population of CD206+/CD71+ cells” value [2] read?
The value was “none of the inhibitors of ATP synthesis or the electron transport chain significantly lowered”.

And the “respiration at 24 hr” value [3]?
Its value is “strongly reduced respiration”.

And the “IL-4-induced expression of Relma, Ym1, Mgl2” value ([4]; IL-4, 24 hr)?
The value was “failed to reduce”.

And the “3H2O release from 9,10-3H-palmitate” value [5]?
The value was “suppressed LCFA oxidation to levels in line with 200 μM etomoxir”.

With `CC(=O)SCCNC(=O)CCNC(=O)[C@H](O)C(C)(C)COP(=O)(O)OP(=O)(O)OC[C@H]1O[C@@H](n2cnc3c(N)ncnc32)[C@H](O)[C@@H]1OP(=O)(O)O` [acetyl CoA] as the compound, how does the “number of cells positive for both CD206 and CD71” value ([2]; 500 μM acetyl CoA) read?
Its value is “cannot reproduce the effect of CoA”.

And the “number of cells positive for both CD206 and CD71” value ([2]; acetyl CoA with CoA, both 500 μM)?
Its value is “counteracts the effect of CoA”.

And the “expression of Arg1, Mgl2 and Fabp4” value ([4]; 500 μM acetyl CoA)?
Its value is “different effects than CoA”.

How did the “population of CD206+/CD71+ cells” value [2] turn out when `C/C=C(\C)[C@H](O)[C@H](C)/C=C(C)/C=C/C/C(C)=C/Cc1nc(OC)c(OC)c(O)c1C` [piericidin A] was run?
Its value is “none of the inhibitors of ATP synthesis or the electron transport chain significantly lowered”.

What about the “respiration at 24 hr” value [3] of the same compound?
The value was “strongly reduced respiration”.

And the “IL-4-induced expression of Relma, Ym1, Mgl2” value ([4]; IL-4, 24 hr)?
The value was “failed to reduce”.

And the “expression of Ym1 and Arg1” value ([4]; mitochondrial inhibitors, IL-4, 24 hr)?
The value was “increased expression”.

`CC[C@H]1/C=C/C=C/C[C@@H](C)[C@H](O)[C@@](C)(O)C(=O)[C@@H](C)[C@H](O)[C@@H](C)C(=O)[C@@H](C)[C@H](O)[C@@H](C)/C=C/C(=O)O[C@@H]2[C@H](C)[C@H](CC1)O[C@]1(CC[C@H](C)[C@H](C[C@@H](C)O)O1)[C@H]2C` [oligomycin] was tested. Which ATP hydrolysis [1, 7] did it give?
Its ATP hydrolysis is “remained inhibitory”.

What about the ATP hydrolysis [1, 8] of the same compound?
Its ATP hydrolysis is “inhibited ATP hydrolysis”.

And the “population of CD206+/CD71+ cells” value [2]?
The value was “none of the inhibitors of ATP synthesis or the electron transport chain significantly lowered”.

What about the “respiration at 24 hr” value [3] of the same compound?
The value was “strongly reduced respiration”.

How did the “Pi transporter activity (rate of swelling)” value [6] turn out when `CCN1C(=O)C=CC1=O` [N-ethyl maleimide, N-ethylmaleimide] was run?
The value was “inhibited the rate of swelling”.

How did the “Pi transporter activity (rate of swelling)” value [6] turn out when `COC(CNC(=O)c1ccccc1OCC(=O)O)[CH2][Hg][OH]` (stereo not drawn) [mersalyl] was run?
The value was “inhibited the rate of swelling”.
